Here are results for two molecules from US20140364417A1, “METHOD OF TREATING ATRIAL FIBRILLATION” (Gilead Sciences, Inc., priority 2013, published 2014).

“And” between values parts separate entries of the source, which are not always exact repeats. Equal values may be shown once. “Also recorded” adds a separate entry of the source.

The subject of series [1] is male Yorkshire pigs. Description: A-H, H-V, PR and QT intervals during right atrial pacing in anesthetized pigs. In kind it is in vivo. The note with it: for increase in PR interval: ivabradine 0.25 mg/kg, 30 min after ivabradine administration; for effect on atrial-His (A-H) interval: right atrial pacing at 180 beats/min, FIG. 6 left panel; for effect on atrial-His (A-H) interval / effect on PR interval: ivabradine 0.25 mg/kg bolus; for effect on PR interval: right atrial pacing at 180 bpm, FIG. 5 upper panel. The method, then: (§1) Data were gathered from male Yorkshire pigs (n=16) weighing 35±2 kg (mean±SEM). The animals were preanesthetized with telazol (4.7 mg/kg, intramuscularly) and then anesthetized with alpha-chloralose (100 mg/kg, i.v., bolus followed by 40 mg/kg/h, i.v., continuous infusion). The animals were intubated and ventilation was maintained between 10-16 breaths/min with volumes between 400-500 mL. Vital signs including core body temperature, heart rate, and oxygen saturation were continuously monitored.
(§2) The right and left femoral veins were cannulated with 7Fr introducer sheaths using the Seldinger technique to insert catheters in the right atrial (RA) appendage for pacing and for positioning the intrapericardial catheter. Arterial blood pressure was continuously monitored from a femoral arterial sheath, and intravenous fluids were administered through the ear vein. The electrocardiogram (ECG) was recorded with a Prucka Cardiolab workstation (GE Medical Systems, Milwaukee, Wis.) from atrial and ventricular sites.
(§3) Ranolazine was given as a 2.4 mg/kg, i.v., bolus followed by continuous infusion of 0.135 mg/kg/min, i.v.
(§4) A nonsteerable, quadripolar electrode catheter (Bard Electrophysiology, Lowell Mass.) was placed in the right atrium (RA) via the femoral vein and a second quadripolar electrode catheter in the right ventricle via the jugular vein. A bipolar electrode was placed in the non-coronary cusp of the aorta through the left carotid artery to record the His bundle electrogram. A pigtail catheter was inserted in the left ventricle via the left femoral artery to record and calculate contractility [left ventricular dP/dt]. Transatrial access was employed to deliver acetylcholine (ACh) into the pericardial space. Specifically, a small puncture was made in the RA appendage with the stiff end of a coronary angioplasty guidewire (0.014-inch Wizdom guidewire, Cordis, Miami, Fla., USA) placed within the lumen of a soft infusion catheter (0.038-inch SOS straight-tip, open-ended angiographic guidewire, Bard Electrophysiology). This wire-within-wire system was advanced as a unit into an 8Fr multipurpose guide catheter (MP2, Boston Scientific, Boston Mass.) previously positioned in the RA appendage via a femoral vein under fluoroscopic guidance and into the pericardial space. The infusion catheter was left in the pericardial space for delivery of ACh and the inner guidewire was removed. Conformation of the infusion catheter on fluoroscopy to the curvature of the heart verified its location within the pericardial space. All of the pericardial fluid was then aspirated with the infusion catheter. Intrapericardial access is associated with a hematocrit <2%, indicating minimum trauma from the atrial puncture (Kumar et al., J Cardiovasc Electrophysiol 2009; 20:796-802). The presence of acetylcholinesterase can rapidly degrade ACh and prevent a sustained response to this neurotransmitter.
The electrical stimulation protocol described below was performed in the control state and after the ivabradine bolus and after ranolazine administration and the combination of ranolazine and ivabradine. Burst pacing was performed after ACh injection into the pericardium and AF was invariably elicited. Ventricular rate during AF was determined by counting the R waves during the 6th minute of AF. Two episodes of AF separated by 10 min were induced to establish control levels.
A Bloom stimulator (Bloom Associates, Reading Pa.) was used to deliver constant-current rectangular stimuli for fixed-rate pacing as well as for delivering premature stimuli. To elicit AF, a burst pacing stimulation with a cycle length of 200 msec was performed. A-H, His-ventricular (H-V), PR and QT interval measurements were made during right atrial pacing at 130 and 180 beats/min.
The statistical tests were carried out with a SAS statistical package (SAS Institute, Cary, N.C.). […]

The conditions of series [2]: Reffelmann and Kloner 2010; Verrier et al 2013; cited from earlier work.
The nature of series [3]: Plasma level determination by LC/MS/MS in pigs. The note with it: pig; at the time of testing combined administration with ivabradine. In kind it is in vivo. The method, then: Blood samples were collected in sodium heparin tubes at 0 and 30 minutes following ranolazine bolus administration and at 0, 15, and 30 minutes after ivabradine bolus administration. The samples were centrifuged and frozen at −80° C. until drug level determination was performed. Concentrations of ivabradine and ranolazine in plasma were determined at Gilead Sciences, Inc. (Foster City Calif.). Plasma was analyzed using a high-performance liquid chromatography-tandem mass spectrometric assay (LC/MS/MS). The quantification limit of ivabradine was 4 nM (1.87 ng/mL). The dynamic range of quantification was 4-10 000 nM (1.87-4686 ng/mL). Ranolazine and an internal standard were extracted with the protein precipitation extraction method. The dynamic range of quantification for ranolazine was 45.8-23,400.

In series [4] the test system is male Yorkshire pigs. As to the kind of experiment: Hemodynamic changes in pigs: sinus rate, mean arterial pressure, left ventricular dP/dt. In kind it is in vivo. Particulars: for sinus rate after drug: at the time of electrical testing, ivabradine 0.25 mg/kg, before drug 111±4.0 (ivabradine) and 105±5.7 (ranolazine, combination). The method, then:
as §1, §2, §3, §4
The statistical tests were carried out with a SAS statistical package (SAS Institute, Cary, N.C.). Effects on electrophysiologic properties were determined by repeated measures analysis of variance (ANOVA) followed by post-hoc t-tests with Bonferroni correction for multiple comparisons. For mean arterial pressure, heart rate, and dominant frequency during atrial fibrillation, we used paired t-tests to compare effects of agents to baseline. All data are reported as mean±SEM, with P<0.05 considered significant.

Series [5] deals with atrial and ventricular myocardium. The note with it: cited from earlier work.
For series [6], the system named is AV node and ventricular Purkinje system. The note with it: ivabradine 0.2 mg/kg, i.v., cited from earlier work.
[7] abbreviates: ivabradine 0.25 mg/kg i.v., ranolazine 2.4 mg/kg bolus + 0.135 mg/kg/min, pacing 130 beats/min.
[8] abbreviates: larger series, ivabradine 0.25 mg/kg i.v., ranolazine 2.4 mg/kg bolus + 0.135 mg/kg/min, pacing 180 beats/min, FIG. 6.
The mark [9] stands for this setting: pacing 130 beats/min, ranolazine 2.4 mg/kg bolus + 0.135 mg/kg/min.
Setting [10] is: pacing 180 beats/min, ranolazine 2.4 mg/kg bolus + 0.135 mg/kg/min.
Setting [11] is: pacing rate 180 beats/min, FIG. 2 (first series).

As to `COc1ccccc1OCC(O)CN1CCN(CC(=O)Nc2c(C)cccc2C)CC1` (racemic) [ranolazine, (±)-N-(2,6-dimethylphenyl)-4-[2-hydroxy-3-(2-methoxyphenoxy)-propyl]-1-piperazineacetamide], in the series with male Yorkshire pigs [1] (setting [7]), the “increase in A-H interval” value was found to be 2.0 ± 2.6 ms. In addition, the “increase in A-H interval” value in the series with male Yorkshire pigs [1] (setting [8]) was determined as 13.8 ± 3.9 ms. In the series with male Yorkshire pigs [1] (male, Yorkshire, pig, in vivo), the “HV interval after drug” value was 35 ms and the “QT interval after drug” value came to 282 ms. In the series on male Yorkshire pigs [1] (setting [9]), the “increase in PR interval” value came to 5 ± 1.8 ms. Moreover, the “increase in PR interval” value in the series with male Yorkshire pigs [1] (setting [10]) stood at 19 ± 2.8 ms. The “increase in A-H interval” value in the series with male Yorkshire pigs [1] (setting [11]) was 18 ms and 18.4 ms. Further, the “A-H interval after drug” value with male Yorkshire pigs [1] (representative experiment FIG. 7, pacing 180 beats/min, before drug 100 msec, ranolazine, then ivabradine 0.25 mg/kg) stood at 107 ms. For the same molecule, the “PR interval after drug” value with male Yorkshire pigs [1] (representative experiment FIG. 7, pacing 180 beats/min, before drug 123 msec) stood at 131 ms. Further, in the series on male Yorkshire pigs [1], the “effect on atrial-His (A-H) interval” value is “did not” and the “effect on PR interval” value is “increased PR interval”. In series [2], the “steady-state plasma therapeutic concentration” value is 2 to 8 µM. The “plasma level of ranolazine” value in series [3] was determined as 9.8 ± 1.5 µM. Also, the “sinus rate after drug” value in the series on male Yorkshire pigs [4] is on record as 96±3.9 beats/min. In addition, in the series with male Yorkshire pigs [4] (pig, in vivo), the “effect on left ventricular (LV) dP/dt (contractility)” value is on record as “not altered” and the “effect on mean arterial pressure during sinus rhythm” value was “Neither ivabradine nor ranolazine given separately altered”. Also, the “dominant frequency of AF” value in series [5] (Kumar et al. 2009) is on record as “capable of reducing”. The “APD in ventricular myocardium” value in series [5] (clinically relevant concentrations (5 and 10 μM)) is recorded as “minimal or no effect”. Moreover, the “duration of the action potential (APD90) in atria” value in series [5] (published studies) is “prolongs”.

For the molecule `COc1cc2c(cc1OC)CC(=O)N(CCCN(C)C[C@H]1Cc3cc(OC)c(OC)cc31)CC2` [ivabradine, 3-{3-[{[(7S)-3,4-dimethoxybicyclo[4.2.0]octa-1,3,5-trien-7-yl]methyll}-(methyl)amino]propyl}-7,8-dimethoxy-1,3,4,5-tetrahydro-2H-3-benzapenin-2-one], the “increase in A-H interval” value with male Yorkshire pigs [1] (setting [7]) is 15.5 ms; in the series with male Yorkshire pigs [1] (setting [8]), 22.0 ± 3.5 ms; in the series with male Yorkshire pigs [1] (setting [11]), 31 ms and 31.2 ms. For the same molecule, the “increase in PR interval” value with male Yorkshire pigs [1] (setting [9]) was found to be 16 ± 3.9 ms; with male Yorkshire pigs [1] (setting [10]), 20 ± 3.5 ms. Further, the “effect on QT interval” value in the series with male Yorkshire pigs [1] (right atrial pacing at 130 and 180 beats/min, FIG. 5 lower panel) is given as “not altered; also recorded: neither drug nor their combination altered QT interval”. Also, the “effect on His-ventricular (H-V) interval” value with male Yorkshire pigs [1] (right atrial pacing at 130 and 180 beats/min, FIG. 6 right panel) is “unchanged; also recorded: neither drug nor their combination altered His-ventricular (H-V) interval”. In addition, in the series with male Yorkshire pigs [1], the “effect on atrial-His (A-H) interval” value is “increased atrial-His (A-H) interval”. For the same molecule, in the series with male Yorkshire pigs [1], the “effect on PR interval” value was “increased PR interval”. Besides, the “left ventricular (LV) dP/dt after drug” value in the series with male Yorkshire pigs [4] (at 30 min after drug, pacing at 180 beats/min, baseline 2156±647.4 (ivabradine) and 1864±109.1 (ranolazine, combination)) was 2342±486.5 mmHg/sec. Besides, the “sinus rate after drug” value in the series with male Yorkshire pigs [4] was 90±3.3 beats/min. The “effect on mean arterial pressure during sinus rhythm” value with male Yorkshire pigs [4] (drugs given separately) is recorded as “Neither ivabradine nor ranolazine given separately altered”. Moreover, in the series with male Yorkshire pigs [4] (pacing at 180 beats/min), the “effect on left ventricular (LV) dP/dt (contractility)” value is on record as “not altered”. In addition, the heart rate entry in series [6] (Thollon 1997, Camm and Lau 2003) is on record as “lowers heart rate”. Besides, the “conductivity, refractoriness or repolarization duration of AV node and ventricular Purkinje system” value in series [6] is “without causing changes”.
